Assay [1] concerns the target 5-hydroxytryptamine receptor 2A (Homo sapiens, UniProt P28223).
The target of assay [2] is 5-hydroxytryptamine receptor 2B (Homo sapiens, UniProt P41595).
The target of assay [3] is T1, 5-hydroxytryptamine receptor 2C (Homo sapiens, UniProt P28335).
T1 sequence (P28335 whole entry): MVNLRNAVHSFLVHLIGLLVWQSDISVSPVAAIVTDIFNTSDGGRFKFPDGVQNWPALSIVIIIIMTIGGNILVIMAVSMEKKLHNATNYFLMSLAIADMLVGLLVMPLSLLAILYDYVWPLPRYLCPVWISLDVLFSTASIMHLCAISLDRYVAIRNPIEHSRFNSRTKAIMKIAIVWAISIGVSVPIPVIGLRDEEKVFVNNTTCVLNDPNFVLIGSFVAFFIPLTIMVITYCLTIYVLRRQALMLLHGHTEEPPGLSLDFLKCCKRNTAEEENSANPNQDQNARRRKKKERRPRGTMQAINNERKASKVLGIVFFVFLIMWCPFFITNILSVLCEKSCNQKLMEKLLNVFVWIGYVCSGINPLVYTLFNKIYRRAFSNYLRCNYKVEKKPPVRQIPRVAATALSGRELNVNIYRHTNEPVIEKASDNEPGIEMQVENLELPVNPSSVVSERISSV

For assay [4], the target named is T2, 5-hydroxytryptamine receptor 3A (Homo sapiens, UniProt P46098).
T2 sequence (P46098 whole entry): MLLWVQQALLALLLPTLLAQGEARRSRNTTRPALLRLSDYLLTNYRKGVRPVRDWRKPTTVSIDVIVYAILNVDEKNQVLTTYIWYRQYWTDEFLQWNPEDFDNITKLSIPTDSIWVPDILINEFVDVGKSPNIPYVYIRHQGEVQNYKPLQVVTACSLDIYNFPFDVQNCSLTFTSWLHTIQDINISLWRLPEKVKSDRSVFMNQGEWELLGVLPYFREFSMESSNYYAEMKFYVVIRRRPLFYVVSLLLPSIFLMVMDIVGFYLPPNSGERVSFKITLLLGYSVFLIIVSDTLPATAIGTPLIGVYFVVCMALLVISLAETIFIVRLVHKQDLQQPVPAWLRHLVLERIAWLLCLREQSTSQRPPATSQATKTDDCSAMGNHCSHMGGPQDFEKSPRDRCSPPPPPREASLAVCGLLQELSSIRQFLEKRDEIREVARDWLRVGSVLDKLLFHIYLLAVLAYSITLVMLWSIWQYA

The target of assay [5] is 5-hydroxytryptamine receptor 5A (Homo sapiens, UniProt P47898).
5-hydroxytryptamine receptor 5A, sequence (P47898 whole entry): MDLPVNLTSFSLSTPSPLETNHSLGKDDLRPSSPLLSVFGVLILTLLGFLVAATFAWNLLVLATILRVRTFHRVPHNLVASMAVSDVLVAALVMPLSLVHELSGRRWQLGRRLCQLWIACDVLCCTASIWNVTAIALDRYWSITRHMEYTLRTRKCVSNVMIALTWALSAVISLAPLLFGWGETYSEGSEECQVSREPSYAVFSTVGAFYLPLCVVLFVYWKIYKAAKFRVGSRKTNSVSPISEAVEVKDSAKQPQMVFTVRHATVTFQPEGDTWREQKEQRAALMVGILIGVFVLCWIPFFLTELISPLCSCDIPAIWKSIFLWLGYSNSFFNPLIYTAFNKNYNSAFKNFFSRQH
In assay [6] the target is 5-hydroxytryptamine receptor 6 (Homo sapiens, UniProt P50406).
5-hydroxytryptamine receptor 6, sequence (P50406 whole entry): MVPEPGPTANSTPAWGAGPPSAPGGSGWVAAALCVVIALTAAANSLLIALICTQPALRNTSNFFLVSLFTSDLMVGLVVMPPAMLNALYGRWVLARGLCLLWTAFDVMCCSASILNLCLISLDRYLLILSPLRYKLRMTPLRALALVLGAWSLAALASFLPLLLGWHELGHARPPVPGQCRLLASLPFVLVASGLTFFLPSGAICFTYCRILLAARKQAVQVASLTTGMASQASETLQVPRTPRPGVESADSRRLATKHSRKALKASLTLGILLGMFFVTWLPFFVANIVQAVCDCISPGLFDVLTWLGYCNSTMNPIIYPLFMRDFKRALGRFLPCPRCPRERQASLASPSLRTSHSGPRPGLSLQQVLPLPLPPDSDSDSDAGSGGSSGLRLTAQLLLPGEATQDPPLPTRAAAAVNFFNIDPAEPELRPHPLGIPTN

5-hydroxytryptamine receptor 2B, sequence (P41595 whole entry): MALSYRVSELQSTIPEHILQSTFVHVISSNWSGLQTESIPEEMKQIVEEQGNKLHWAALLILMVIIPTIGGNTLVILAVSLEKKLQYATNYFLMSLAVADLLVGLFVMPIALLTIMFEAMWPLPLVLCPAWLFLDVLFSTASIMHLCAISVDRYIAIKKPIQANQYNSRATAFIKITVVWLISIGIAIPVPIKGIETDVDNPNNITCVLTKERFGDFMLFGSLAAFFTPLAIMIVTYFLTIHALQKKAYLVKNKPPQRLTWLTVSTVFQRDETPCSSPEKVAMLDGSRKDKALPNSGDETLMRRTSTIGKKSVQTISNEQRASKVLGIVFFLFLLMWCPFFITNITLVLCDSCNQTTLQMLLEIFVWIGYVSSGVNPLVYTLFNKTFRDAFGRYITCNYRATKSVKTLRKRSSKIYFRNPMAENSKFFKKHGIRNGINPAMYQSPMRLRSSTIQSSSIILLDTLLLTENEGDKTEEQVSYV
5-hydroxytryptamine receptor 2A, sequence (P28223 whole entry): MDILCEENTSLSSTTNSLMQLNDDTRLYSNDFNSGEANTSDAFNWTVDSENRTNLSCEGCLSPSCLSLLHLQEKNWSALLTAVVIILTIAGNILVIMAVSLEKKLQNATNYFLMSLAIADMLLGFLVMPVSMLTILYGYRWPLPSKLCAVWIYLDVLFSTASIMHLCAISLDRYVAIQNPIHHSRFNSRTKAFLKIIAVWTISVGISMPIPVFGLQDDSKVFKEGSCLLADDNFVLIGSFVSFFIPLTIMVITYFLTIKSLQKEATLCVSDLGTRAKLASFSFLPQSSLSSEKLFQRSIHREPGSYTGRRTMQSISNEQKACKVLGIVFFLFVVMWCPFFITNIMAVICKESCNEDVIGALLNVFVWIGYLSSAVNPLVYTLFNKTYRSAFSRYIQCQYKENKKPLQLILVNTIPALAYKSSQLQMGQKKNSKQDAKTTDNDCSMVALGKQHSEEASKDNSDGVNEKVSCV

For orientation: Ki means the equilibrium dissociation constant of an inhibitor or competing ligand from its target. With `CC(C)c1cc(-c2ccc(F)c3ccccc23)nc(N)n1` [RS-127445], the inhibitory constant (Ki) in assay [1] is 501 nM; in assay [2], 0.32 nM; in assay [3] it was 398 nM; in assay [4], 1000 nM; in assay [5], 1000 nM; in assay [6], 1000 nM.
In turn, `Cc1nc2sccn2c(=O)c1CCN1CCC(=C(c2ccc(F)cc2)c2ccc(F)cc2)CC1` registered a Ki in assay [2] of 1 nM.
Turning to `COc1ccc(CC2NCCc3c2[nH]c2ccccc32)cc1OC` (stereo not drawn) [LY-23728], in assay [2], the affinity, expressed as Ki, was 1 nM.
